Results reported in patent US6509329B1, “Cyclic diamine compound with 6-membered ring groups” (Kowa Co., Ltd., priority 2001, dated 2003).
Where two headings read alike, the source gives them in different places.

Test system: adhesion of U937 cells to HUVEC stimulated by IL-1β or TNFα
Assay: Inhibitory effect on cell adhesion (U937 adhesion to stimulated HUVEC)
Assay type: cell-based
Details: Homo sapiens, compound at 1 μM, fluorescence-labeled U937 adhesion for 1 hour
Experimental: This test was conducted by reference to the method of Ross et al. (J. Biol. Chem., 267, 8537-8543 (1992)). More specifically, after human umbilical venous endothelial cells (HUVEC) were cultured on a 48-well plate to confluent growth, IL−1β or TNFα was added thereto. Upon elapsed time of 5 hours after the addition, U937, which is a human monocytic/histocytic cell fluorescence-labeled with PKH2 (product of Dainippon Pharmaceutical Co., Ltd.), was added in a proportion of 1×10^6 cells per well. After the plate was left at rest at room temperature for 1 hour, unadhered U937 was washed out and lysed in 1% Triton X-100 to measure a remaining fluorescence intensity (excitation wavelength: 480 nm; measuring wavelength: 530 nm). HUVEC and U937 were cultured in EGM-2 (product of Sanko Junyaku K.K.) and 10% FCS-containing RPMI1640, respectively. Each test agent was added to HUVEC upon the addition of IL-1β or TNFα and to U937 24 hours prior to the cell adhesion test. The inhibitory activity was calculated out according to the equation [100−(C−B)/(A−B)×100 (%)], wherein A is the number of U937 cells adhered to HUVEC stimulated by IL−1β or TNFα when no test agent was added, B is the number of U937 cells adhered to HUVEC not stimulated by IL-1β or TNFα when no test agent was added, and C is the number of U937 cells adhered to HUVEC stimulated by ILβ or TNFα when the test agent was added. As control compounds, Test Compound 1 described in Japanese Patent Application Laid-Open No. 9-143075 and dilazep described in Japanese Patent Application Laid-Open No. 11-92382 were simultaneously evaluated.

[1] = HUVEC stimulated by IL-1β for 5 hours, read-out: Percent inhibition (%) of cell adhesion, Stimulation by IL-1β
[2] = HUVEC stimulated by TNFα for 5 hours, read-out: Percent inhibition (%) of cell adhesion, Stimulation by TNFα

`COc1cc(C(=O)OCCCN2CCCN(CCCOC(=O)c3cc(OC)c(OC)c(OC)c3)CC2)cc(OC)c1OC` [Dilazep, dilazep, reference compound] was tested, and the inhibition at 1 µM [1] was 0% and the inhibition at 1 µM [2] was 12%.

`COc1cc(-c2cccc(CN3CCCN(Cc4cccc(-c5cc(OC)c(OC)c(OC)c5)c4)CC3)c2)cc(OC)c1OC` [Example 4, N,N′-bis[3-(3,4,5-Trimethoxyphenyl)benzyl]-homopiperazine] was tested, and the inhibition at 1 µM [1] was 42% and the inhibition at 1 µM [2] was 43%.

Work on `COc1cc(-c2cc(CN3CCN(Cc4ccnc(-c5cc(OC)c(OC)c(OC)c5)c4)CC3)ccn2)cc(OC)c1OC` [Example 9, N,N′-bis[[2-(3,4,5-Trimethoxyphenyl)pyridin-4-yl]methyl]piperazine] yielded an inhibition at 1 µM [1] of 53% and an inhibition at 1 µM [2] of 64%.

In the case of `COc1cc(-c2cc(CN3CCCN(Cc4ccnc(-c5cc(OC)c(OC)c(OC)c5)c4)CC3)ccn2)cc(OC)c1OC` [Example 10, N,N′-bis[[2-(3,4,5-Trimethoxyphenyl)pyridin-4-yl]methyl]homopiperazine], the inhibition at 1 µM [1] is reported as 63% and the inhibition at 1 µM [2] is reported as 71%.

`COc1cc(C#Cc2cc(CN3CCN(Cc4ccnc(C#Cc5cc(OC)c(OC)c(OC)c5)c4)CC3)ccn2)cc(OC)c1OC` [Example 22, N,N′-bis[[2-(3,4,5-Trimethoxyphenylethynyl)-pyridin-4-yl]methyl]piperazine] gave an inhibition at 1 µM [1] of 34% and an inhibition at 1 µM [2] of 50%.
